Measurements: ChEMBL document CHEMBL2417517, “Isolation, structures, and biological activities of triterpenoids from a Penares sp. marine sponge” (J Nat Prod, 2013)

System: HL-60
Experiment: Cytotoxicity against human HL60 cells after 46 hrs by MTS assay
Assay type: functional, cell-based
Details: HL-60, 46 h

CC(C)=CCC[C@@H](C)[C@H]1CC[C@]23C(=O)O[C@]4(CC[C@]12C)C3=CC[C@H]1C(C)(C)[C@@H](O)CC[C@@]14C
IC50: 9.7 µM
